This passage reports mortality results from patent US20250282754A1, “BICYCLIC COMPOUNDS AND THEIR USE AS PEST CONTROL AGENTS” (Pl Industries Ltd., priority 2022, published 2025).

Holding throughout (assay type): in vivo
Assay [1] deals with Myzus persicae. The assay can be described thus: Myzus persicae leaf dip test (capsicum leaves, third instar nymphs). Conditions: foliar, dead and moribund third instar nymphs 72 h after release, compared to untreated controls, read-out: percent mortality. As to the method:
The leaf dip method was used for testing, wherein the required quantity of the compound was weighed and dissolved in a tube containing a solvent solution. The tube was put on a vortex at 2000 rpm for proper mixing and then diluted with a 0.01% Triton-X solution to the desired test concentration. Capsicum leaves were dipped in the compound solution for 10 seconds, shade dried for 20 min and then placed, with the abaxial side of the leaf up, in single cells of a bio-assay tray containing 4 ml of a solidified 1% agar-agar solution. Known numbers of third instar nymphs of Myzus persicae, collected in petri plates, were released into the cell with the treated leaf and the cell was covered with a perforated lid for better aeration. The trays were kept in a plant growth chamber at a temperature of 25° C. and a relative humidity of 70%. Observations on dead, moribund and alive nymphs were recorded 72 h after the release. Percent mortality was calculated by combining dead and moribund nymphs and comparing the result with the one of the untreated controls. The compounds

Assay [2] deals with Nilaparvata lugens. As to the kind of experiment: Nilaparvata lugens seedling dip test (paddy seedlings, third instar nymphs). Conditions: dead and moribund third instar nymphs 72 h after release, compared to untreated controls, read-out: percent mortality. The essentials: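 Paddy seedlings dipped 10 s in compound diluted with 0.01% Triton-X, shade dried, then infested with 15 third-instar nymphs at 25 °C, 75% RH. Mortality (dead plus moribund) scored at 72 h relative to untreated controls.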

The subject of assay [3] is Bemisia tabaci. The assay can be described thus: Bemisia tabaci leaf dip test (brinjal leaves, whitefly adults). Conditions: foliar, dead and moribund whitefly adults 72 h after release, compared to untreated controls, read-out: percent mortality. The essentials: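 Brinjal leaves were dipped 10 s in compound diluted in 0.01% Triton-X, dried, and placed on agar, then exposed to freshly emerged whitefly adults at 25° C, 70% RH. Dead plus moribund adults were counted at 72 h, and percent mortality was calculated relative to untreated controls.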

`CS(C)(=O)=Nc1ccc2nn(-c3cccnc3)cc2c1` [Compound 1]: the mortality at 300 ppm in assay [1], in assay [2] and in assay [3] was no less than 70% each time.

With `CCS(C)(=O)=Nc1ccc2nn(-c3cccnc3)cc2c1` (stereo not shown) [Compound 2], the mortality at 300 ppm in assay [1] and in assay [2] was no less than 70% each time.

Consider `CCS(=O)(CC)=Nc1ccc2nn(-c3cccnc3)cc2c1` [Compound 3], for which the mortality at 300 ppm in assay [1] and in assay [2] was no less than 70% in each case.

On to `CC(C)S(=O)(=Nc1ccc2nn(-c3cccnc3)cc2c1)C(C)C` [Compound 28], for which the mortality at 300 ppm in assay [1], in assay [2] and in assay [3] was no less than 70% in each case.

As for `CCS(=O)(=Nc1ccc2nn(-c3cccnc3)cc2c1)C(C)C` (stereo not shown) [Compound 29], the mortality at 300 ppm in assay [1], in assay [2] and in assay [3] was no less than 70% in each case.

In the case of `CCS(=O)(=Nc1ccc2nn(-c3cncnc3)cc2c1)C(C)C` (stereo not shown) [Compound 32], the mortality at 300 ppm in assay [1], in assay [2] and in assay [3] was no less than 70% throughout.

`CCS(=O)(=Nc1ccc2nn(-c3cncc(F)c3)cc2c1)C(C)C` (stereo not shown) [Compound 41]: the mortality at 300 ppm in assay [1] and in assay [2] was no less than 70% each time.

For `O=S(CCC(F)(F)F)(=Nc1ccc2nn(-c3cncnc3)cc2c1)c1ccc(F)cc1` (stereo not shown) [Compound 64], the mortality at 300 ppm in assay [1] and in assay [2] was no less than 70% throughout.

As for `CS(C)(=O)=NC(=O)c1cccc2nn(-c3cccnc3)cc12` [Compound 92, N-(dimethyl(oxo)-λ^6-sulfaneylidene)-2-(pyridin-3-yl)-2H-indazole-4-carboxamide], the mortality at 300 ppm in assay [1] and in assay [2] was no less than 70% each time.

`COc1nn(-c2ccc3nn(-c4cccnc4)cc3c2)c(=O)n1C` [Compound 110, 5-methoxy-4-methyl-2-(2-(pyridin-3-yl)-2H-indazol-5-yl)-2,4-dihydro-3H-1,2,4-triazol-3-one]: the mortality at 300 ppm in assay [1] and in assay [3] was no less than 70% in each case.

As for `COc1nn(-c2ccc3nn(-c4cncc(F)c4)cc3c2)c(=O)n1C` [Compound 112, 2-(2-(5-fluoropyridin-3-yl)-2H-indazol-5-yl)-5-methoxy-4-methyl-2,4-dihydro-3H-1,2,4-triazol-3-one], the mortality at 300 ppm in assay [1] and in assay [2] was no less than 70% in each case.

In the case of `COc1nn(-c2ccc3nn(-c4cncnc4)cc3c2)c(=O)n1C` [Compound 119, 5-methoxy-4-methyl-2-(2-(pyrimidin-5-yl)-2H-indazol-5-yl)-2,4-dihydro-3H-1,2,4-triazol-3-one], the mortality at 300 ppm in assay [1] and in assay [3] was no less than 70% each time.

As for `CCn1c(OC)nn(-c2ccc3nn(-c4cccnc4)cc3c2)c1=O` [Compound 123, 4-ethyl-5-methoxy-2-(2-(pyridin-3-yl)-2H-indazol-5-yl)-2,4-dihydro-3H-1,2,4-triazol-3-one], the mortality at 300 ppm in assay [1] and in assay [3] was no less than 70% throughout.

As to `COc1nn(-c2ccc3nn(-c4cccnc4)cc3c2)c(=O)n1Cc1ccc(F)cc1` [Compound 124, 4-(4-fluorobenzyl)-5-methoxy-2-(2-(pyridin-3-yl)-2H-indazol-5-yl)-2,4-dihydro-3H-1,2,4-triazol-3-one], the mortality at 300 ppm in assay [1] and in assay [3] was no less than 70% throughout.

For the molecule `CCCS(=O)(CC)=Nc1ccc2nn(-c3cccnc3)cc2c1` (stereo not shown) [Compound 137], the mortality at 300 ppm in assay [1] and in assay [2] was no less than 70% throughout.

For `CS(C)(=O)=Nc1cnc2nn(-c3cccnc3)cc2c1` [Compound 146], the mortality at 300 ppm in assay [1] and in assay [2] was no less than 70% each time.

For the molecule `CCS(C)(=O)=Nc1cnc2nn(-c3cccnc3)cc2c1` (stereo not shown) [Compound 147], the mortality at 300 ppm in assay [1] and in assay [2] was no less than 70% throughout.

Regarding `CCS(=O)(=Nc1cnc2nn(-c3cccnc3)cc2c1)C(C)C` (stereo not shown) [Compound 148], the mortality at 300 ppm in assay [1] and in assay [2] was no less than 70% each time.

For `CS(=O)(=Nc1ccc2nn(-c3cccnc3)cc2n1)C1CCCCC1` (stereo not shown) [Compound 216], the mortality at 300 ppm in assay [1] and in assay [3] was no less than 70% in each case.

Regarding `CC(C)S(C)(=O)=Nc1ccc(Cl)c2nn(-c3cccnc3)cc12` (stereo not shown) [Compound 218], the mortality at 300 ppm in assay [1] and in assay [3] was no less than 70% in each case.

Regarding `CS(C)(=O)=Nc1ccc2nn(-c3cccnc3)cc2n1` [Compound 224], the mortality at 300 ppm in assay [1] and in assay [3] was no less than 70% throughout.

Consider `COCCS(C)(=O)=Nc1ccc2nn(-c3cncnc3)cc2n1` (stereo not shown) [Compound 237], for which the mortality at 300 ppm in assay [1] and in assay [3] was no less than 70% throughout.

Take `CCCS(C)(=O)=Nc1ccc2nn(-c3cccnc3)cc2n1` (stereo not shown) [Compound 239]: the mortality at 300 ppm in assay [1] and in assay [3] was no less than 70% throughout.

Turning to `CCS(C)(=O)=Nc1ccc2nn(-c3cccnc3)cc2n1` (stereo not shown) [Compound 248], the mortality at 300 ppm in assay [1] and in assay [3] was no less than 70% in each case.

For `CCS(=O)(CC)=Nc1ccc2nn(-c3cccnc3)cc2n1` [Compound 249], the mortality at 300 ppm in assay [1] and in assay [3] was no less than 70% throughout.

With `CCCS(=O)(=Nc1ccc2nn(-c3cccnc3)cc2n1)C(C)C` (stereo not shown) [Compound 254], the mortality at 300 ppm in assay [1] and in assay [3] was no less than 70% each time.

As for `CC(C)S(=O)(=Nc1ccc2nn(-c3cccnc3)cc2n1)C(C)C` [Compound 255], the mortality at 300 ppm in assay [1] and in assay [3] was no less than 70% throughout.

Consider `CCC(C)S(=O)(=Nc1ccc2nn(-c3cccnc3)cc2n1)C(C)C` (stereo not shown) [Compound 287], for which the mortality at 300 ppm in assay [1] and in assay [3] was no less than 70% each time.

Consider `CC(C)S(=O)(CC1CC1)=Nc1ccc2nn(-c3cccnc3)cc2n1` (stereo not shown) [Compound 288], for which the mortality at 300 ppm in assay [1] and in assay [3] was no less than 70% in each case.

For `CCC(C)S(=O)(=Nc1ccc2nn(-c3cccnc3)cc2c1)C(C)C` (stereo not shown) [Compound 291], the mortality at 300 ppm in assay [1] and in assay [3] was no less than 70% in each case.

In the case of `CS(C)(=O)=Nc1ccc2nn(-c3cncc(F)c3)cc2n1` [Compound 306], the mortality at 300 ppm in assay [1] and in assay [3] was no less than 70% in each case.

On to `CCS(=O)(=Nc1ccc2nn(-c3cncc(F)c3)cc2n1)C(C)C` (stereo not shown) [Compound 312], for which the mortality at 300 ppm in assay [1] and in assay [3] was no less than 70% each time.

As to `CCS(C)(=O)=Nc1ccc2nn(-c3cncnc3)cc2n1` (stereo not shown) [Compound 314], the mortality at 300 ppm in assay [1] and in assay [3] was no less than 70% throughout.

Turning to `CCN=S(=O)(c1ccc2nn(-c3cccnc3)cc2c1)C(C)C` (stereo not shown) [Compound 383], the mortality at 300 ppm in assay [1] and in assay [3] was no less than 70% each time.

Take `CCN=S(=O)(CC1CC1)c1ccc2nn(-c3cccnc3)cc2c1` (stereo not shown) [Compound 388]: the mortality at 300 ppm in assay [1] and in assay [2] was no less than 70% each time.

As to `CCS(=N)(=O)c1ccc2nn(-c3cncnc3)cc2c1` (stereo not shown) [Compound 455, ethyl(imino)(2-(pyrimidin-5-yl)-2H-indazol-5-yl)-λ^6-sulfanone], the mortality at 300 ppm in assay [1] and in assay [3] was no less than 70% throughout.

For the molecule `N=S(=O)(CC(F)(F)F)c1ccc2nn(-c3cncnc3)cc2c1` (stereo not shown) [Compound 458, imino(2-(pyrimidin-5-yl)-2H-indazol-5-yl)(2,2,2-trifluoroethyl)-λ^6-sulfanone], the mortality at 300 ppm in assay [1] and in assay [3] was no less than 70% throughout.

As for `CCCS(=N)(=O)c1ccc2nn(-c3cncc(F)c3)cc2c1` (stereo not shown) [Compound 478, (2-(5-fluoropyridin-3-yl)-2H-indazol-5-yl)(imino)(propyl)-λ^6-sulfanone], the mortality at 300 ppm in assay [1] and in assay [3] was no less than 70% each time.

In the case of `CCC(C)S(=N)(=O)c1ccc2nn(-c3cncc(F)c3)cc2c1` (stereo not shown) [Compound 479, sec-butyl(2-(5-fluoropyridin-3-yl)-2H-indazol-5-yl)(imino)-λ^6-sulfanone], the mortality at 300 ppm in assay [1] and in assay [3] was no less than 70% in each case.

In the case of `CCC(CC)S(=N)(=O)c1ccc2nn(-c3cncc(F)c3)cc2c1` (stereo not shown) [Compound 480, (2-(5-fluoropyridin-3-yl)-2H-indazol-5-yl)(imino)(pentan-3-yl)-λ^6-sulfanone], the mortality at 300 ppm in assay [1] and in assay [3] was no less than 70% each time.

For the molecule `N=S(=O)(CCCF)c1ccc2nn(-c3cncc(F)c3)cc2c1` (stereo not shown) [Compound 482, (3-fluoropropyl)(2-(5-fluoropyridin-3-yl)-2H-indazol-5-yl)(imino)-λ^6-sulfanone], the mortality at 300 ppm in assay [1] and in assay [3] was no less than 70% throughout.

`CC(C)CS(=N)(=O)c1ccc2nn(-c3cccnc3)cc2c1` (stereo not shown) [Compound 557, imino(isobutyl)(2-(pyridin-3-yl)-2H-indazol-5-yl)-λ^6-sulfanone]: the mortality at 300 ppm in assay [1] and in assay [3] was no less than 70% in each case.

What is called mortality is the share of the test organisms that died.
